# In ChEMBL document CHEMBL3885861, “Open TG-GATES”:
# Species: Rattus norvegicus
# Experiment: Open TG-GATES - Regimen: Daily Repeat
# Assay type: toxicity, organism-based, Sprague-Dawley
# Set-up: regimen Daily Repeat, gender Male, age 6 weeks
# Conditions: in vivo, po, 8 mg/kg, route gavage, dose level Low; for APTT / Bas / Eos / Fbg / Hb / Ht / Lym / MCH / MCHC / MCV / Mono / Neu / PT / Plat / RBC / Ret / WBC: tissue Blood
# [1] = 72 h, tissue Kidney, time 3 day
# [2] = 72 h, tissue Plasma, time 3 day
smiles,measurement,setting,value
NC1=NC(=O)C(c2ccccc2)O1 (stereo unspecified) [PEMOLINE],TERMINAL_BW,"72 h, time 3 day",232.2 g
same,APTT,"72 h, time 3 day",17.3 s
same,Bas,"72 h, time 3 day",0%
same,Eos,"72 h, time 3 day",1.2%
same,Fbg,"72 h, time 3 day",275 mg/dL
same,Hb,"72 h, time 3 day",13.5 g/dL
same,Ht,"72 h, time 3 day",39.8%
same,Lym,"72 h, time 3 day",77%
same,MCH,"72 h, time 3 day",21.5 pg
same,MCHC,"72 h, time 3 day",33.8%
same,MCV,"72 h, time 3 day",63.5 fL
same,Mono,"72 h, time 3 day",3.6%
same,Neu,"72 h, time 3 day",18.2%
same,PT,"72 h, time 3 day",12.8 s
same,Plat,"72 h, time 3 day",112.1 x10_4/uL
same,RBC,"72 h, time 3 day",627.2 x10_4/ul
same,Ret,"72 h, time 3 day",7.3%
same,WBC,"72 h, time 3 day",82.8 x10_2/uL
same,KIDNEY_L,[1],1 g
same,KIDNEY_R,[1],1 g
same,KIDNEY_TOTAL,[1],1.9 g
same,LIVER,"72 h, tissue Liver, time 3 day",11.1 g
same,A/G,[2],0.9
same,ALP,[2],1587 IU/L
same,ALT,[2],45.6 IU/L
same,AST,[2],70.6 IU/L
same,BUN,[2],15 mg/dL
same,CRE,[2],0.2 mg/dL
same,Ca,[2],10.8 mg/dL
same,Cl,[2],105.6 meq/L
same,DBIL,[2],0.018 mg/dL
same,GLC,[2],182 mg/dL
same,IP,[2],8.2 mg/dL
same,K,[2],3.7 meq/L
same,LDH,[2],58.8 IU/L
same,Na,[2],143.6 meq/L
same,PL,[2],155.8 mg/dL
same,RALB,[2],2.7 g/dL
same,TBIL,[2],0.03 mg/dL
same,TC,[2],93 mg/dL
same,TG,[2],84.4 mg/dL
same,TP,[2],5.6 g/dL
same,gamma-GTP,[2],1 IU/L
same,TERMINAL_BW,"[…], time 7 day",267.2 g
same,TERMINAL_BW,"[…], time 14 day",337.4 g
same,TERMINAL_BW,"[…], time 28 day",432.5 g
same,APTT,"[…], time 7 day",17.3 s
same,Bas,"[…], time 7 day",0.2%
same,Eos,"[…], time 7 day",1%
same,Fbg,"[…], time 7 day",286.6 mg/dL
same,Hb,"[…], time 7 day",13.8 g/dL
same,Ht,"[…], time 7 day",40.5%
same,Lym,"[…], time 7 day",79.4%
same,MCH,"[…], time 7 day",21.6 pg
same,MCHC,"[…], time 7 day",34.1%
same,MCV,"[…], time 7 day",63.2 fL
same,Mono,"[…], time 7 day",3%
same,Neu,"[…], time 7 day",16%
same,PT,"[…], time 7 day",12.8 s
same,Plat,"[…], time 7 day",119.7 x10_4/uL
same,RBC,"[…], time 7 day",641.4 x10_4/ul
same,Ret,"[…], time 7 day",5.9%
same,WBC,"[…], time 7 day",119.6 x10_2/uL
same,APTT,"[…], time 14 day",17.3 s
same,Bas,"[…], time 14 day",0%
same,Eos,"[…], time 14 day",1%
same,Fbg,"[…], time 14 day",297 mg/dL
same,Hb,"[…], time 14 day",14.2 g/dL
same,Ht,"[…], time 14 day",40.8%
same,Lym,"[…], time 14 day",74.8%
same,MCH,"[…], time 14 day",21.4 pg
same,MCHC,"[…], time 14 day",34.8%
same,MCV,"[…], time 14 day",61.3 fL
same,Mono,"[…], time 14 day",2.4%
same,Neu,"[…], time 14 day",21.4%
same,PT,"[…], time 14 day",12.7 s
same,Plat,"[…], time 14 day",109.6 x10_4/uL
same,RBC,"[…], time 14 day",665.6 x10_4/ul
same,Ret,"[…], time 14 day",4.6%
same,WBC,"[…], time 14 day",83 x10_2/uL
same,APTT,"[…], time 28 day",17.5 s
same,Bas,"[…], time 28 day",0%
same,Eos,"[…], time 28 day",1%
same,Fbg,"[…], time 28 day",251.8 mg/dL
same,Hb,"[…], time 28 day",15.2 g/dL
same,Ht,"[…], time 28 day",42%
